Laboratory results reported in patent US20250207127A1, “PHYTOECDYSONES AND/OR 20-HYDROXYECDYSONE DERIVATIVES IN COMBINATION WITH AN ACTIVE INGREDIENT FOR RESTORING SMN EXPRESSION, FOR USE IN THE TREATMENT OF SPINAL MUSCULAR ATROPHY” (BIOPHYTIS, priority 2021, published 2025).
Strand notation (5' to 3'): a small letter for the sugar, then the base; units joined by * are phosphorothioate-linked, units joined directly phosphodiester-linked; [ ] holds rarer units or linkages, { } end groups; capitals alone tell only the bases. e = 2'-O-(2-methoxyethyl) (MOE); [5mC] = 5-methylcytosine

What was measured:
Type in all cases: in vivo, mouse
[1] = test system: SMA mice (Smn^Δ7/Δ7; huSMN2^+/−); test: Grip-test (muscle fatigability) of SMA mice; settings: relative to mismatch ASO
Method: (§1) On the day of injection, the ASO stock solution is diluted to the concentration of 2 μg/μL in 0.9% NaCl. Methylene blue 0.04% is added to the solution as an injection control. Newborn SMA mice receive a single dose of ASO 10-27 or ASO mismatch of 8 μg on the 1st post-natal day (PO) by unilateral intra-cerebro-ventricular injection using a Hamilton syringe and a 32G needle. The injection site is located 1 mm from the sagittal suture, between bregma and lambda, landmarks visible through the skin at PO. The needle is positioned perpendicular to the injection site on the surface of the skin and inserted approximately 3 mm deep to reach the lateral ventricle.
(§2) The complementary treatment BIO101 complexed with cyclodextrin is administered daily to the mice from the first post-natal day (PO) orally at a dose of 50 mg/kg using a pipette.
(§3) We performed phenotypic analyses of severe SMA type 2 mice treated with BIO101 alone or a mismatch ASO or ASO 10-27 alone, or with an ASO 10-27+BIO101 combined treatment from PO. […] We, on the one hand, evaluated the movement capacities by the open-field test (FIG. 3), as well as the muscular fatigability by grip-test (FIG. 4), as previously described (Biondi et al., 2008; Branchu et al., 2013; Chali et al., 2016).
In order to assess the muscle fatigability, the grip strength of the mice's forelimbs was tested. […] The time spent hanging on is recorded. […]

[2] = test system: SMA mice (Smn^Δ7/Δ7; huSMN2^+/−); test: Open-field test (movement capacities) of SMA mice; settings: at P15, 5 minutes, mean±SEM
Method: as §1, with “ventricle. […]” for “ventricle.”
as §3
The device used for open-field testing consists of a plastic box measuring 28×28×5 cm with a field grid divided into 16 tiles measuring 7 cm×7 cm. […] The behavioural measurements were recorded by the experimenter during these 5 minutes and the total number of crossed tiles was recorded.

[3] = test system: SMA mice (Smn^Δ7/Δ7; huSMN2^+/−); test: Survival of severe SMA mice treated from P0
Source text: (§4) The antisense oligonucleotide (ASO) of sequence SEQ ID NO: 23 (5′-TCACTTTCATAATGCTGG-3′), of reference ISIS 396443, also known under the name ISIS-SMNRx, and called in the remainder of the description ASO 10-27, complementary to 18 bases (bases 10 to 27) of intron 7 of the SMN2 gene (targeting a site in intron 7, called ISS-N1, which represses the inclusion of exon 7 of the pre-messenger RNA (pre-mRNA) of the SMN2 gene) having modified nucleotides 2′-O-methoxyethyl on the 2′ carbon atom of deoxyribose for each base, with a phosphorothioate backbone and 5-methyl cytosines and the control ASO (denoted mismatch) of sequence SEQ ID NO°: 24 (5′-TTAGTTTAATCACGCTCG-3′) (Singh et al. 2006; Williams et al. 2009), were synthesised and purified as previously described (Baker et al. 1997, Hua et al. 2008; Passini et al., 2011). The oligonucleotides are resuspended at a concentration of 8 μg/μL in 0.9% NaCl and stored at −20° C.
as §1, §2
(§5) A severe SMA mouse model was used on a FVB/NRj genetic background, characterised by the invalidation of exon 7 of the murine Smn gene and expressing two copies of the human SMN2 transgene (Smn^Δ7/Δ7; huSMN2−/+) (Hsieh et al., 2000). The mice resulting from these crosses having the genotype “FVB/NRj-Smn^Δ7/Δ7 huSMN2−/+2 copies” are described as “SMA” (Hsieh et al., 2000). SMA mice were treated with either BIO101 alone or a mismatch ASO or an ASO 10-27 alone, or with an ASO 10-27+BIO101 combined treatment starting from PO. Survival (FIG. 1) and weight

[4] = test system: SMA mice (Smn^Δ7/Δ7; huSMN2^+/−); test: Weight evolution of severe SMA mice treated from P0; settings: relative to mismatch ASO
Source text: as §4, §1, §2, §5

[5] = SMA mice, ASO 8 μg single ICV injection at P0, BIO101 50 mg/kg oral daily from P0

| Substance | improvement of resistance to fatigue (grip-test) ([1]; at P7) | improvement of resistance to fatigue (grip-test) ([1]; at P15) | total number of crossed tiles (open field) [2] | median survival [3, 5] | improvement in animal survival ([3]; median survival compared to mismatch ASO control group) | increase of average weight ([4]; at P7) | increase of average weight ([4]; at P8) | increase of average weight ([4]; at P9) | increase of average weight ([4]; at P10) | average lifespan of the mouse pups [3, 5] |
| --- | --- | --- | --- | --- | --- | --- | --- | --- | --- | --- |
| 5′-TCACTTTCATAATGCTGG-3′ (antisense eT*e[5mC]*eA*e[5mC]*eT*eT*eT*e[5mC]*eA*eT*eA*eA*eT*eG*e[5mC]*eT*eG*eG) [ASO 10-27, antisense oligonucleotide complementary to bases 10 to 27 of intron 7 of the SMN2 gene] | not improved | 7.7% | 70±20 tiles | 18 days | 38% | does not increase | 9.9% | 13.9% | 16% |  |
| 5′-TTAGTTTAATCACGCTCG-3′ (listed as DNA, chemistry not given here) [mismatch ASO, control ASO (denoted mismatch)] |  |  |  | 13 days |  |  |  |  |  | 13 days |
